Reference: US20090203792A1, “METHODS OF TREATING NON-PAINFUL BLADDER DISORDERS USING ALPHA2DELTA SUBUNIT CALCIUM CHANNEL MODULATORS” (priority 2002, published 2009)
“Also recorded” adds a separate entry of the source.

Key:
[1] = test system: calcium currents of bladder afferent (DRG) neurons; assay: Bladder sensory neuron calcium current model (whole cell patch-clamp); format: cell-based, rat
Description: Labeling of bladder afferent neurons: Adult female Sprague-Dawley rats (150-300 g) were deeply anesthetized with isoflurane. A ventral midline incision was made through the abdominal skin and musculature, exposing the urinary bladder. Five injections of the fluorescent dye Fast Blue (4%) were made into the bladder smooth muscle wall to label primary afferent fibers innervating the bladder. The area was rinsed with sterile saline to eliminate nonspecific spread of dye, and the incision was closed. Rats recovered for 12-14 days to allow for transport of Fast Blue from distal terminals to the cell somata of dorsal root ganglion (DRG) neurons. Labeled neurons were identified in vitro using fluorescence optics. […]
Neurons were incubated in culture medium containing the FITC-labeled lectin BSI-B4 (IB4, […]) at 37° C. for 5 min before recording. The coverslip was washed with extracellular recording solution for 1 min before being placed in a recording chamber mounted on the stage of an inverted microscope equipped with fluorescence optics. […]
Calcium currents were recorded from DRG neurons using standard electrophysiologic protocols. […] Currents were recorded using a patch-clamp amplifier and digitized at 3-10 kHz for acquisition. […] Baseline responses were recorded until a steady-state peak amplitude was obtained, and to ensure that the kinetics of the response were stable. […]

[2] = test system: rat bladder irritated by intravesical dilute acetic acid; assay: Dilute acetic acid model of bladder overactivity, filling cystometry; format: in vivo; settings: for bladder capacity normalized to pre-irritation saline control values (reversal of acetic acid-induced reduction) / bladder capacity during continuous intravesical dilute acetic acid infusion: rats; for bladder capacity normalized to pre-irritation saline control values (reversal of acetic acid-induced reduction): intravenous cumulative doses: gabapentin 30-300 mg/kg n=11, pregabalin 10-100 mg/kg n=7; for bladder capacity during continuous intravesical dilute acetic acid infusion: intravenous increasing doses (gabapentin 30-300 mg/kg, p=0.0031 by Friedman test; pregabalin 10-100 mg/kg)
Description: Animal Preparation Female rats (250-275 g BW) were anesthetized with urethane (1.2 g/kg) and a saline-filled catheter (PE-50) was inserted into the jugular vein for intravenous drug administration. Via a midline lower abdominal incision, a flared-tipped PE 50 catheter was inserted into the bladder dome for bladder filling and pressure recording and secured by ligation. The abdominal cavity was moistened with saline and closed by covering with a thin plastic sheet in order to maintain access to the bladder for emptying purposes. Fine silver or stainless steel wire electrodes were inserted into the external urethral sphincter (EUS) percutaneously for electromyography (EMG).
Experimental Design: Saline was continuously infused at a rate of 0.055 ml/min via the bladder filling catheter for 60 minutes to obtain a baseline of lower urinary tract activity (continuous cystometry; CMG). Following the control period, a 0.25% acetic acid solution in saline was infused into the bladder at the same flow rate to induce bladder irritation. Following 30 minutes of AA infusion, 3 vehicle injections were made at 20 minute intervals to determine vehicle effects, if any. Increasing doses of a selected active agent, gabapentin (30, 100 and 300 mg/kg; n=11) or pregabalin (10, 30 and 100 mg/kg; n=7), at half log increments were administered intravenously at 30 minute intervals in order to construct a cumulative dose-response relationship. At the end of the control saline cystometry period, at the third vehicle, and 20 minutes following each subsequent treatment, the infusion pump was stopped, the bladder was emptied via the infusion catheter and a single filling cystometrogram was performed at the same flow rate in order to determine changes in bladder capacity caused by the irritation protocol and subsequent […] drug administration. Body temperature was maintained at 37 C with a heating pad.
Bladder capacity was estimated by single filling cystometry. Data were analyzed by non-parametric ANOVA for repeated measures (Friedman Test) for cumulative dose-response studies and Dunn's Multiple Comparison post-test. In some cases, comparisons were made from the last vehicle measurement (AA/Veh 3). P<0.050 was considered significant.

[3] = test system: α2δ subunit of calcium channels; settings: Bryans et al. (1999) Med. Res. Rev. 19: 149-177; cited from earlier work
[4] = test system: rat bladder irritated by intravesical protamine sulfate/KCl; assay: Urothelial permeation/physiological potassium model (protamine sulfate/KCl bladder irritation), filling cystometry; format: in vivo
Description: Female rats (250-275 g BW) are anesthetized with urethane (1.2 g/kg) and a saline-filled jugular catheter (PE-50) is inserted for intravenous drug administration. Via a midline abdominal incision, a PE 50 catheter is inserted into the bladder dome for bladder filling and pressure recording. The abdominal cavity is moistened with saline and closed by covering with a thin plastic sheet in order to maintain access to the bladder for filling cystometry emptying purposes. Fine silver or stainless steel wire electrodes are inserted into the external urethral sphincter (EUS) percutaneously for electromyography (EMG).
Saline and all subsequent infusates are continuously infused at a rate of 0.055 ml/min via the bladder filling catheter for 30-60 minutes to obtain a baseline of lower urinary tract activity (continuous cystometry; CMG). Bladder pressure traces act as direct measures of bladder and urethral outlet activity, and EUS-EMG phasic firing and voiding act as indirect measures of lower urinary tract activity during continuous transvesical cystometry. […] Once a stable level of lower urinary tract hyperactivity is established (20-30 minutes), vehicle followed by increasing doses of a selected active agent are administered intravenously in order to construct a cumulative dose-response relationship and their effects on LUT function are monitored for 20 minutes. […]

| SMILES | block of currents recorded from bladder afferent neurons ([1]; 0.1 mM, data not shown) | bladder capacity normalized to pre-irritation saline control values (reversal of acetic acid-induced reduction) [2] | bladder capacity during continuous intravesical dilute acetic acid infusion [2] | binding affinity for the α2δ subunit of calcium channels compared with gabapentin [3] | bladder capacity during continuous bladder irritation (protamine sulfate/KCl) ([4]; rats n=6, 30, 100 and 300 mg/kg intravenously, sequential at 30 minute intervals, p=0.0108 by Friedman test) | drug-induced changes in blood pressure ([4]; rats, intravenous, any dose examined) | bladder capacity response compared with last vehicle measurement (AA/Veh 3) ([2]; rats n=5, 300 mg/kg intravenous, p<0.05 by Dunn's multiple comparison test) | peak calcium current during drug application, relative to control ([1]; 30 μM bath application, six bladder afferent neurons, step from −80 mV to 0 mV, mean±SEM) |
| --- | --- | --- | --- | --- | --- | --- | --- | --- |
| [Cl][Cd][Cl] [CdCl2] | completely blocked |  |  |  |  |  |  |  |
| CC(C)C[C@H](CN)CC(=O)O [Pregabalin, (S)-(3-aminomethyl)-5-methylhexanoic acid] |  | 42% | demonstrate efficacy | even higher binding affinity |  |  |  |  |
| NCC1(CC(=O)O)CCCCC1 [gabapentin, 1-(aminomethyl)cyclohexaneacetic acid] |  | ~50% | partially reversing the reduction in bladder capacity caused by acetic acid in a dose-dependent fashion; also recorded: dose-dependent increase in bladder capacity; also recorded: demonstrate efficacy |  | reversed the irritation effect (decreased bladder capacity) in a dose-dependent fashion; also recorded: dose-dependent increase in bladder capacity | No drug-induced changes in blood pressure | significantly higher than AA/Veh 3 | 85+1% |
